The source of these data is PubChem BioAssay (NCI).

The structures appear in SMILES notation.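 Cells were grown in 96-well plates and exposed to each compound for 48 hours at five concentrations; endpoints were interpolated linearly between bracketing concentrations, or set to the highest concentration if not reached. GI50 = concentration required for 50% inhibition of growth. TGI is the concentration that stops growth completely.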 Bounds are passed on as bounds.

Among the test systems are UO-31 renal; IGROV1 ovarian; NCI-H522 lung; MDA-MB-231 breast; CAKI-1 renal; EKVX NSCLC; MALME-3M melanoma; PC-3 prostate; HOP-92 NSCLC; HS 578T breast.
Experiment in all cases: inhibition of tumour cell growth, NCI panel, 48 h

`CCCCOC(C)(C)/C=C/C(O)[C@](C)(O)[C@H]1[C@H](O)C[C@@]2(C)[C@@H]3CCc4c(cc(OC5OC(CO)C(O)C(O)C5O)c(O)c4C)C3(C)C(=O)C[C@]12C` (stereo not given in full): the TGI with UO-31 renal, in the experiment on IGROV1 ovarian, in the experiment on NCI-H522 lung, in the experiment on MDA-MB-231 breast, in the experiment on CAKI-1 renal and in the experiment on EKVX NSCLC was > 100 µM each time. The TGI in the experiment on MALME-3M melanoma, with PC-3 prostate and in the experiment with HOP-92 NSCLC was > 100 µM in each case.
Take `Nn1c(CCCCCCCCc2nnc(COc3c(O)ccc4ccccc34)n2N)nnc1COc1c(O)ccc2ccccc12`: the TGI in the experiment with UO-31 renal, with IGROV1 ovarian, in the experiment with NCI-H522 lung, in the experiment with MDA-MB-231 breast, in the experiment on CAKI-1 renal and in the experiment with EKVX NSCLC was > 100 µM in each case. The TGI in the experiment with MALME-3M melanoma, with PC-3 prostate and in the experiment with HOP-92 NSCLC was > 100 µM each time.
As to `CCC[C@H]1C(=O)N=C(N)N1C(=O)OCc1ccccc1`, the TGI in the experiment with UO-31 renal, with IGROV1 ovarian, in the experiment on HS 578T breast, with NCI-H522 lung, in the experiment with MDA-MB-231 breast and in the experiment with CAKI-1 renal was > 100 µM in each case. Further, the TGI in the experiment on EKVX NSCLC, in the experiment with MALME-3M melanoma and in the experiment on PC-3 prostate was > 100 µM throughout.
For `CCOC(=O)c1[nH]cc(C)c1-c1ccn(-c2ccccc2)c1`, the TGI is > 100 µM with UO-31 renal; 55.9 µM in the experiment on IGROV1 ovarian; > 100 µM in the experiment on HS 578T breast; 71.2 µM in the experiment with NCI-H522 lung; > 100 µM in the experiment with CAKI-1 renal; > 100 µM in the experiment with EKVX NSCLC. For the same compound, the TGI in the experiment on PC-3 prostate was > 100 µM; with HOP-92 NSCLC, 82.8 µM.
For `NC(=O)C(=O)N/N=C1/c2ccccc2CC1C1(O)C(=O)Nc2c(Cl)cc(Cl)cc21` (stereo not given), the TGI in the experiment with UO-31 renal, in the experiment on IGROV1 ovarian, with NCI-H522 lung, with CAKI-1 renal, with EKVX NSCLC and in the experiment with MALME-3M melanoma was > 100 µM each time. In addition, in the experiment on HOP-92 NSCLC, the TGI is > 100 µM.
As to `COc1ccc(-c2cc(=O)c3cc4c(cc3[nH]2)OCO4)c(OC)c1OC`, the TGI with UO-31 renal, in the experiment with IGROV1 ovarian, with NCI-H522 lung, in the experiment on CAKI-1 renal, in the experiment on EKVX NSCLC and in the experiment with MALME-3M melanoma was > 100 µM each time. Besides, the TGI with HOP-92 NSCLC is > 100 µM.
Regarding `N#Cc1c(-c2ccccc2)/c(=C\Nc2ccc(Cl)cc2)c(=O)n2c1nc1ccccc12`, the TGI is > 100 µM in the experiment with UO-31 renal; > 100 µM with IGROV1 ovarian; > 100 µM in the experiment with NCI-H522 lung; > 100 µM with MDA-MB-231 breast; 94.4 µM in the experiment on CAKI-1 renal; > 100 µM in the experiment on MALME-3M melanoma. In the experiment on PC-3 prostate, the TGI was > 100 µM.
For `CCCCCCCCCC[C@H](O)[C@H]1CC[C@H]([C@H]2CC[C@H]([C@H](O)CC[C@H](O)CCCCCCC[C@@H](O)CC3=C[C@H](C)OC3=O)O2)O1`, the GI50 in the experiment on UO-31 renal was 23.6 µM; in the experiment with MDA-MB-231 breast it was > 100 µM; in the experiment on HOP-92 NSCLC, > 100 µM. For the same compound, the TGI with UO-31 renal, with IGROV1 ovarian, with NCI-H522 lung, with MDA-MB-231 breast, in the experiment on CAKI-1 renal and with EKVX NSCLC was > 100 µM each time. For the same compound, the TGI with MALME-3M melanoma, in the experiment on PC-3 prostate and in the experiment with HOP-92 NSCLC was > 100 µM each time.
In the case of `COc1cc(/C=C/C(=O)O)ccc1C(=O)O/C=C/c1ccccc1`, the TGI with UO-31 renal, in the experiment with IGROV1 ovarian, in the experiment with NCI-H522 lung, with EKVX NSCLC, in the experiment on MALME-3M melanoma and in the experiment with HOP-92 NSCLC was > 100 µM throughout.
On to `COc1cc(C2c3cc4c(cc3OC(NN=C(C)C)C2C)OCO4)cc(OC)c1O` (stereo not given), for which the TGI was > 100 µM in the experiment with UO-31 renal; > 100 µM in the experiment with IGROV1 ovarian; 25.3 µM with NCI-H522 lung; > 100 µM in the experiment on MDA-MB-231 breast; > 100 µM in the experiment on CAKI-1 renal; > 100 µM with MALME-3M melanoma. The TGI with PC-3 prostate and with HOP-92 NSCLC was > 100 µM each time.
With `CCN(CC)CCNc1ccc2nnn3c4ccc(OC)cc4c(=O)c1c23`, the TGI with UO-31 renal was 22.2 µM; in the experiment with IGROV1 ovarian, 22.9 µM; in the experiment with NCI-H522 lung, 19.6 µM; in the experiment on CAKI-1 renal, 27.6 µM; with MALME-3M melanoma, 22.3 µM; in the experiment on HOP-92 NSCLC, 19.5 µM.
For `COc1cc(/C=C2\C(=O)N(C(=O)Cc3ccccc3)N=C2C)ccc1O`, the TGI with UO-31 renal, in the experiment on NCI-H522 lung, in the experiment with CAKI-1 renal, with EKVX NSCLC and in the experiment on MALME-3M melanoma was > 100 µM throughout.
Regarding `COc1ccc(N2C(=O)c3c4c(c5c([nH]c6ncccc65)c3C2=O)CCC(C(C)(C)C)C4)cc1` (stereo not given), the TGI was > 100 µM in the experiment on UO-31 renal; > 100 µM in the experiment on IGROV1 ovarian; 72.2 µM with HS 578T breast; > 100 µM in the experiment on NCI-H522 lung; > 100 µM in the experiment with MDA-MB-231 breast; > 100 µM in the experiment on EKVX NSCLC. The TGI with PC-3 prostate was > 100 µM.
For the compound `O=C(CP(=O)(O)O)c1cccs1`, the TGI with UO-31 renal, in the experiment on IGROV1 ovarian, with NCI-H522 lung, in the experiment with CAKI-1 renal, in the experiment on EKVX NSCLC and in the experiment with MALME-3M melanoma was > 100 µM throughout. Further, the TGI in the experiment on HOP-92 NSCLC is > 100 µM.
`CC(=O)NS(=O)(=O)c1ccc(NC(=O)c2c3ccccc3nc3ccccc23)cc1`: the TGI in the experiment on UO-31 renal, in the experiment with IGROV1 ovarian, in the experiment with NCI-H522 lung, in the experiment with MDA-MB-231 breast, in the experiment on CAKI-1 renal and in the experiment with EKVX NSCLC was > 100 µM in each case. Also, the TGI with MALME-3M melanoma, in the experiment on PC-3 prostate and with HOP-92 NSCLC was > 100 µM in each case.
Turning to `OC[C@@H](O)[C@H]1NC[C@@H](O)[C@H]1O`, the TGI with UO-31 renal, with IGROV1 ovarian, in the experiment with HS 578T breast, in the experiment on NCI-H522 lung, in the experiment with CAKI-1 renal and in the experiment with EKVX NSCLC was > 100 µM each time. In addition, the TGI in the experiment on MALME-3M melanoma, in the experiment on PC-3 prostate and in the experiment on HOP-92 NSCLC was > 100 µM in each case.
